Measurements taken from patent publication US7592421B1, “HLA class II peptide mimics” (Health Research, Inc., priority 2003, dated 2009).
Entries after “also recorded” stand apart in the source; their conditions may differ.

What was measured:
[1] = test system: HLA class II antigens of LG2 lymphoid cells; assay: Flow cytometry of immune sera with LG2 lymphoid cells; assay type: cell-based, human; details: sera of immunized BALB/c mice, day 35; FIG. 4A
Source text: (§1) HLA-DR transgenic mice express HLA-DR molecules. The promoter that is used to drive DR expression in the transgenic mice is H2 Ea promoter (pDOI-5 expression vector). This vector directs the expression of cDNA to cells which normally display class II molecules. HLA-DR transgenic mice were utilized as a model to test whether HLA class II peptide mimics can break tolerance to self-antigen. HLA-DR transgenic mice were immunized with peptide JH1 and JHT1 conjugated to keyhole limpet hemocyanin (KLH) and mixed with complete Freund's adjuvant for priming and with incomplete Freund's adjuvant for boosting. […] These experiments utilized LG2 cells as described in Example 2 and MOLT-4 cells. […] It was used as a control. Sera used for testing reactivity with HLA class II antigens was harvested on day 35 from BABL/c mice for FIGS. 2 and 4 and on day 70 from HLA-DR transgenic mice in FIG. 3. For FIGS. 2, 3 and 4, preimmune serum was harvested one week before the first immunization and was used as a control. […] One intradermal injection with HLA class II bearing LG2 cells enhanced the immune response to HLA class II antigens.

[2] = test system: mAb TP117.6 binding to HLA class II antigens on LG2 cells; assay: Inhibition of binding of mAb TP117.6 to HLA class II bearing LG2 cells; set-up: species or system human; details: FIG. 1D
Description: (§2) Peptide mimics of HLA class II antigen can be isolated by panning phage display peptide libraries with anti-HLA class II antigen mAbs. Anti-HLA class II antigen mAbs can be used to isolate phage that display antibody reactive peptides. After phage panning, the binding ability of isolated phage colonies to anti-HLA class II antigen mAbs is tested with immunoscreening and further confirmed by enzyme-linked immunosorbent assay (ELISA). Anti-HLA class II antigen antibody reactive phage clone and the same phage without displaying peptides, can be utilized as a positive and a negative controls respectively in the immunoscreening and ELISA. In the positive phage clones, the DNA inserts that encode the antibody reactive peptides can be sequenced. Peptides can be synthesized based on the sequences of the DNA inserts. The synthesized peptides are tested in ELISA to determine their binding reactivity with corresponding anti-HLA class II antigen mAbs. The ability of synthetic peptides to inhibit the binding of anti-HLA class II antigen mAbs to HLA class II antigen can be tested in an inhibition assay with HLA class II antigen-positive cell lines. The synthetic peptides that inhibit or block the binding of anti-HLA class II antigen mAbs to HLA class II antigen can be tested as active immunotherapy candidates. […]

MOLT-4 lymphoid cells = assay: Flow cytometry of immune sera with control MOLT-4 lymphoid cells; assay type: cell-based, human; details: sera of immunized BALB/c mice, day 35; MOLT-4 does not express HLA class II; FIG. 4B
Source text: as §1

[3] = test system: anti-HLA class II mAb HT214.F2.H6.4F4; assay: ELISA binding of synthetic peptide to mAb HT214.F2.H6.4F4; details: ELISA and inhibition assay
Description: as §2

[4] = test system: mAb TP25.99, which recognizes HLA class I antigens; assay: Inhibition of binding of control mAb TP25.99 (specificity control); details: FIG. 1E
Description: This Example illustrates the ability of the peptide mimics to bind to anti-HLA class II mAbs. The synthetic peptides were tested by ELISA for their ability to bind to anti-HLA class II mAb H2-27.F5.2G4, HT214.F2.H6.4F4, LGII612.14 and TP117.6. JH1 and JHT1 were also tested for their ability to inhibit the binding of anti-HLA class II mAb H2-27.F5.2G4 (FIG. 1B), HT214.F2.H6.4F4 (FIG. 1A), LGII612.14 (FIG. 1C) and TP117.6 (FIG. 1D) to HLA class II bearing cells LGL2 cells. H2-27.F5.2G4, LGII-612.14 and HT214.F2.H6.4F4 are monoclonal antibodies (mAb) that recognize HLA class II antigens. TP25.99 is a monoclonal antibody (mAb) which recognizes HLA class I antigens and is used in FIG. 1E as a control. LG2 is a human lymphoid cell line which expresses HLA class II antigens on its cell surface. P763.74 is a High Molecular Weight-Melanoma Associated Antigen (HMW-MAA) peptide mimic isolated using the anti-HMW-MAA mAb 763.74 and is used in FIGS. 1A-1C as a control peptide. The peptides were considered to be mimics of HLA class II antigens if they could inhibit the binding of any of the four anti-HLA class II mAb (H2-27, F5.2G4, HT214.F2.H6.4F4, LGII612.14 and TP117.6) to HLA class II bearing cells.

[5] = Side effects in immunized mice; assay type: in vivo; details: peptide-KLH, Freund's adjuvant
Source text: as §1

HLA class II antigens [6] = assay: Immunization of HLA-DR transgenic mice, breaking of self-tolerance; assay type: in vivo; details: peptide conjugated to KLH with Freund's adjuvant, sera day 70, FIG. 3
Source text: as §1

HLA class II antigens [7] = assay: Immunization of BALB/c mice, serum reactivity with HLA class II antigens; assay type: in vivo; details: peptide conjugated to KLH with Freund's adjuvant, sera day 35, FIG. 2
Source text: as §1

[8] = test system: mAb HT214.F2.H6.4F4 binding to HLA class II antigens on LG2 cells; assay: Inhibition of binding of mAb HT214.F2.H6.4F4 to HLA class II bearing LG2 cells; set-up: species or system human; details: FIG. 1A; negative control peptide 673.74
Description: as §2

[9] = test system: immunizing peptides; HLA class II; assay: Antibody titers in sera of immunized mice; assay type: in vivo; details: peptide-KLH, Freund's adjuvant; FIGS. 2-4
Source text: as §1

[10] = test system: mAb LGII-612.14 binding to HLA class II antigens on LG2 cells; assay: Inhibition of binding of mAb LGII-612.14 to HLA class II bearing LG2 cells; set-up: species or system human; details: FIG. 1C; negative control peptide 673.74
Description: as §2

[11] = test system: mAb H2-27.F5.2G4 binding to HLA class II antigen on LG2 cells; assay: Inhibition of binding of mAb H2-27.F5.2G4 to HLA class II bearing LG2 cells; set-up: species or system human; details: FIG. 1B; negative control peptide 673.74
Description: as §2

[12] = test system: anti-HLA class II mAb H2-27.F5.2G4; assay: ELISA binding of synthetic peptide to mAb H2-27.F5.2G4; details: ELISA and inhibition assay
Description: as §2

[13] = test system: anti-HLA class II mAb LGII-612.14; assay: ELISA binding of synthetic peptide to mAb LGII-612.14; details: ELISA and inhibition assay
Description: as §2

| Sequence | reactivity of immune sera with HLA class II antigens of LG2 lymphoid cells (flow cytometry) [1] | inhibition of binding of mAb TP117.6 to HLA class II antigens on LG2 cells [2] | reactivity of immune sera with control MOLT-4 lymphoid cells (flow cytometry) (MOLT-4 lymphoid cells) | reaction with the combining site of mAb HT214.F2.H6.4F4 [3] | inhibition of binding of mAb TP25.99 (anti-HLA class I, control) [4] | side effects in immunized mice [5] | breaking self-tolerance, humoral immune response against HLA class II antigens (HLA class II antigens [6]) | humoral immune response against HLA class II antigens (HLA class II antigens [7]) | inhibition of binding of mAb HT214.F2.H6.4F4 to HLA class II antigens on LG2 cells [8] | anti-HLA class II antibodies in sera of immunized mice [9] | antibodies to the immunizing peptides in sera of immunized mice [9] | inhibition of binding of mAb LGII-612.14 to HLA class II antigens on LG2 cells [10] | inhibition of binding of mAb H2-27.F5.2G4 to HLA class II antigen on LG2 cells [11] | reaction with the combining site of mAb H2-27.F5.2G4 [12] | reaction with the combining site of mAb LGII-612.14 [13] |
| --- | --- | --- | --- | --- | --- | --- | --- | --- | --- | --- | --- | --- | --- | --- | --- |
| KCPLDPKGLNCV (unknown synthesized peptide JHT1) [HLA class II peptide mimic isolated by panning with mAb HT214.F2.H6.4F4] | reactivity | can inhibit binding | lack of reactivity | reacted with the combining sites | do not inhibit binding | No obvious side effects | can break self-tolerance and elicit a humoral immune response against HLA class II antigens; also recorded: can also break self-tolerance | elicits a humoral immune response against HLA class II antigens; also recorded: also induced a humoral response against HLA class II antigens | inhibits binding of mAb HT214.F2.H6.4F4 to HLA class II antigens to LG2 cells in a dose-dependent manner | detected in the sera of immunized mice at lower titers | high-titer antibodies to the immunizing peptides were detected | – | – | – | – |
| SCLRAGGWVCCK (unknown synthesized peptide JH1) [HLA class II peptide mimic isolated by panning phage display libraries with mAb H2-27.F5.2G4 and LGII-612.14] | reactivity | can inhibit binding | lack of reactivity | – | do not inhibit binding | No obvious side effects | can break self-tolerance and elicit a humoral immune response against HLA class II antigens | elicits a humoral immune response against HLA class II antigens; also recorded: induced a humoral response against HLA class II antigens | – | detected in the sera of immunized mice at lower titers | high-titer antibodies to the immunizing peptides were detected | inhibits binding of mAb LGII-612.14 to HLA class II antigens on LG2 cells in a dose-dependent manner | inhibits binding of mAb H2-27.F5.2G4 to HLA class II antigen on LG2 cells in a dose-dependant manner | reacted with the combining sites | reacted with the combining sites |
